Values after ≈ are worked out from the molar mass of the structure shown.
Experiments:
Assay type in all cases: functional
Micrococcus luteus = test: Antibacterial activity against Micrococcus luteus ATCC 9341 assessed as inhibition of visible growth
Bacillus subtilis = test: Antibacterial activity against Bacillus subtilis ATCC 6633 assessed as inhibition of visible growth
Saccharomyces = test: Antifungal activity against Saccharomyces sake ATCC 26421 assessed as inhibition of visible growth
Staphylococcus aureus = test: Antibacterial activity against Staphylococcus aureus ATCC 25923 assessed as inhibition of visible growth
Pseudomonas aeruginosa = test: Antibacterial activity against Pseudomonas aeruginosa ATCC 14502 assessed as inhibition of visible growth
Trichophyton rubrum = test: Antifungal activity against Trichophyton rubrum ATCC 10218 assessed as inhibition of visible growth
Candida albicans = test: Antifungal activity against Candida albicans ATCC 1600 assessed as inhibition of visible growth
Escherichia coli = test: Antibacterial activity against Escherichia coli ATCC 25922 assessed as inhibition of visible growth
Shigella flexneri = test: Antibacterial activity against Shigella flexneri ATCC 12022 assessed as inhibition of visible growth
[1] = system: Staphylococcus epidermidis; test: Antibacterial activity against Staphylococcus epidermidis ATCC 12228 assessed as inhibition of visible growth
Nannizzia gypsea = test: Antifungal activity against Microsporum gypseum ATCC 14683 assessed as inhibition of visible growth

| Compound | MIC (Micrococcus luteus) | MIC (Bacillus subtilis) | MIC (Saccharomyces) | MIC (Staphylococcus aureus) | MIC (Pseudomonas aeruginosa) | MIC (Trichophyton rubrum) | MIC (Candida albicans) | MIC (Escherichia coli) | MIC (Shigella flexneri) | MIC [1] | MIC (Nannizzia gypsea) |
| --- | --- | --- | --- | --- | --- | --- | --- | --- | --- | --- | --- |
| C=C(C)[C@@H]1CC[C@]2(C)[C@H](CC=C3[C@@H]4C[C@@](C)(C(=O)O)CC[C@]4(C)CC[C@]32C)[C@@]1(C)CCC(=O)O [KOETJAPIC ACID] | > 50 µg/mL | 6.25 µg/mL (≈ 13.3 µM) | > 50 µg/mL | > 50 µg/mL | > 50 µg/mL | > 50 µg/mL | > 50 µg/mL | > 50 µg/mL | > 50 µg/mL | 12.5 µg/mL (≈ 26.6 µM) | > 50 µg/mL |
| CC(C)(C(=O)O)[C@@H]1CC[C@]2(C)[C@H](CC=C3[C@@H]4C[C@@](C)(C(=O)O)CC[C@]4(C)CC[C@]32C)[C@@]1(C)C(=O)O [DYSOXYHAINIC ACID F] | > 50 µg/mL | > 50 µg/mL | > 50 µg/mL | > 50 µg/mL | > 50 µg/mL | > 50 µg/mL | > 50 µg/mL | > 50 µg/mL | > 50 µg/mL | > 50 µg/mL | > 50 µg/mL |
| CC1(C)CC[C@]2(C)CC[C@]3(C)C(=CC=C4[C@@](C)(CCC(=O)O)[C@H](C(C)(C)O)CC[C@]43C)[C@@H]2C1 [DYSOXYHAINIC ACID J] | > 50 µg/mL | > 50 µg/mL | > 50 µg/mL | > 50 µg/mL | > 50 µg/mL | > 50 µg/mL | > 50 µg/mL | > 50 µg/mL | > 50 µg/mL | > 50 µg/mL | > 50 µg/mL |
| CC1(C)CC[C@]2(C)CC[C@]3(C)C(=CC[C@@H]4[C@@](C)(CCC(=O)O)[C@H](C(C)(C)O)CC[C@]43C)[C@@H]2C1 [DYSOXYHAINIC ACID I] | > 50 µg/mL | 1.56 µg/mL (≈ 3.4 µM) | > 50 µg/mL | > 50 µg/mL | > 50 µg/mL | > 50 µg/mL | > 50 µg/mL | > 50 µg/mL | > 50 µg/mL | 12.5 µg/mL (≈ 27.2 µM) | > 50 µg/mL |
| C=C(C)[C@@H]1CC[C@]2(C)[C@H](CC=C3[C@@H]4C[C@@](C)(C(=O)O)CC[C@]4(C)CC[C@]32C)[C@@]1(C)CCC(=O)OC [DYSOXYHAINIC ACID G] | 3.12 µg/mL (≈ 6.44 µM) | 3.12 µg/mL (≈ 6.44 µM) | > 50 µg/mL | > 50 µg/mL | > 50 µg/mL | > 50 µg/mL | > 50 µg/mL | > 50 µg/mL | > 50 µg/mL | 3.12 µg/mL (≈ 6.44 µM) | > 50 µg/mL |

More lines, now with the values ahead:

| MIC (Micrococcus luteus) | MIC (Bacillus subtilis) | MIC (Saccharomyces) | MIC (Staphylococcus aureus) | MIC (Pseudomonas aeruginosa) | MIC (Trichophyton rubrum) | MIC (Candida albicans) | MIC (Escherichia coli) | MIC (Shigella flexneri) | MIC [1] | MIC (Nannizzia gypsea) | Compound |
| --- | --- | --- | --- | --- | --- | --- | --- | --- | --- | --- | --- |
| 12.5 µg/mL (≈ 46.9 µM) | 12.5 µg/mL (≈ 46.9 µM) | – | 25 µg/mL (≈ 93.9 µM) | > 50 µg/mL | – | – | > 50 µg/mL | > 50 µg/mL | 12.5 µg/mL (≈ 46.9 µM) | – | C=CCc1ccc(O)c(-c2cc(CC=C)ccc2O)c1 [MAGNOLOL] |
| 3.12 µg/mL (≈ 6.8 µM) | 3.12 µg/mL (≈ 6.8 µM) | > 50 µg/mL | > 50 µg/mL | > 50 µg/mL | > 50 µg/mL | > 50 µg/mL | > 50 µg/mL | > 50 µg/mL | > 50 µg/mL | > 50 µg/mL | C=C(C)[C@@H]1CC[C@]2(C)[C@H](CC[C@@H]3[C@H]4[C@H](C(C)(C)O)CC[C@]4(C)CC[C@]32C)[C@@]1(C)CCC(=O)O [DYSOXYHAINIC ACID H] |
| – | – | 12.5 µg/mL (≈ 28.9 µM) | – | – | 25 µg/mL (≈ 57.8 µM) | 6.25 µg/mL (≈ 14.5 µM) | – | – | – | 12.5 µg/mL (≈ 28.9 µM) | COC(=O)C1=CC[C@@]23CC[C@@H]([C@@](C)(/C=C/C=C(\C)C(=O)O)OC2=O)[C@@]3(OC(C)=O)CC1 [PSEUDOLARIC ACID B] |
